Measurements as given in patent US9963496B2, “Stable glucagon analogues and use for treatment of hypoglycaemia” (Novo Nordisk A/S, priority 2014, dated 2018).
*1 amine or outer side, *2 acyl side, *3 side chain or, on linkers, in order; H or OH if unused. Where a SMILES comes first, the peptide text is derived from it. Side-chain parts run from the residue outwards. The star is where a group is joined. γGlu = O=C(O)[C@H](CCC(=O)[*:2])N[*:1]; Desaminohistidyl = O=C(CCc1c[nH]cn1)*

How the values were obtained:
human glucagon receptor = target: T1, human glucagon receptor (Homo sapiens, UniProt P47871); assay: Assay (I)(b): glucagon receptor activation, CRE luciferase reporter gene assay in BHK cells; type: cell-based; details: BHK cells expressing human glucagon receptor and CRE luciferase, 3 h incubation; read-out: EC50 hGlucagonR
T1 construct: expressed in transfected cells; host or cells: BHK cells, clone BHK hGCGR A3*25; isolated membranes
T1 sequence (P47871 26-477): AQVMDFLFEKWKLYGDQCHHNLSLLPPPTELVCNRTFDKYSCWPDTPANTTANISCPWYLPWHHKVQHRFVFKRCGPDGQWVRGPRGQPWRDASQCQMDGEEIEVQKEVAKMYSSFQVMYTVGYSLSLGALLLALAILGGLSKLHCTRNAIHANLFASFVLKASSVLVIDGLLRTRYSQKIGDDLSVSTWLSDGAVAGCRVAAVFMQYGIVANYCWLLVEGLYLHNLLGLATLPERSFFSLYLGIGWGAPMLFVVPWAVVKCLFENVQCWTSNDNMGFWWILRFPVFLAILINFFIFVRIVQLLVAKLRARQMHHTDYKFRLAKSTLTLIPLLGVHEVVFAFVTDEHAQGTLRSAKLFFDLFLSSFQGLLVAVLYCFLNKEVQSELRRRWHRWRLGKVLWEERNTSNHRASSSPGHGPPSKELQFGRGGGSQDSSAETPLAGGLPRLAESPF
Experimental: The purpose of this assay is to test the activity, or potency, of the derivatives of the invention, in vitro. The in vitro potency is the measure of human GLP-1 receptor and/or glucagon receptor activation, respectively, in a whole cell assay.
In vitro potency was determined by measuring the response of human GLP-1 or glucagon receptor, respectively, in a reporter gene assay. The assay was performed in a stably transfected BHK cell line that expressed either the human GLP-1 receptor or the human glucagon receptor and contained the DNA for the cAMP response element (CRE) coupled to a promoter and the gene for firefly luciferase (CRE luciferase). […] When assay incubation was completed, the luciferase substrate (luciferin) was added and the enzyme converted luciferin to oxyluciferin and produced bioluminescence. The luminescence was measured as the readout for the assay.
(b) Glucagon Receptor Activation
The cells used in this assay (clone pLJ6′-4-25) were BHK cells with BHK570 as a parent cell line expressing the CRE luciferase gene (clone BHK/KZ10-20-48) and were established by further transfection with the human glucagon receptor (clone pLJ6′ in pHZ-1 vector).
The cells were cultured at 5% CO2 in DMEM medium with 10% FBS, 1× GlutaMAX, 1 mg/mL G418, 240 nM MTX (methotrexate) and 1% pen/strep (penicillin/streptomycin). They were aliquoted and stored in liquid nitrogen. Before each assay, an aliquot was taken up and washed three times in PBS before being suspended at the desired concentration in assay buffer. For 96-well plates the suspension was made to give a final concentration of 5×10 EE3 cells/well.
Assay Medium consisted of DMEM w/o phenol red, 10 mM Hepes, lx GlutaMAX, 2% Ovalbumin and 0.2% Pluronic F-68.
Cell stocks were thawed in a 37° C. water bath. Cells were washed three times in PBS. The cells were counted and adjusted to 5×10 EE3 cells/50 μl (1×10 EE5 cells/mL) in Assay Medium. A 50 μl aliquot of cells was transferred to each well in the assay plate.
Stocks of the test compounds and reference compounds were diluted to a concentration of […] in Assay Medium. Compounds were diluted 10-fold to give the following concentrations: […], 2×10 EE-7 M, 2×10 EE-8 M; 2×10 EE-9 M, 2×10 EE-10 M, 2×10 EE-11 M, 2×10 EE-12 M and 2×10 EE-13 M. For each compound a blank assay buffer control was also included.
A 50 μl aliquot of compound or blank was transferred from the dilution plate to the assay plate. Compounds were tested at the following final concentrations: 1×10 EE-6 M, 1×10 EE-7 M, 1×10 EE-8 M; 1×10 EE-9 M, 1×10 EE-10 M, 1×10 EE-11 M and 1×10 EE-12 M and 1×10 EE-13 M.
The assay plate was incubated for 3 h in a 5% CO2 incubator at 37° C. The assay plate was removed from the incubator and allowed to stand at room temperature for 15 min. A 100 μl aliquot of steadylite plus reagent was added to each well of the assay plate (reagent is light sensitive). Each assay plate was covered with aluminum foil to protect it from light and shaken for 30 min at room temperature. Each assay plate was read in a Packard TopCount NXT instrument.
The data from the TopCount instrument was transferred to GraphPad Prism software. The software performed a non-linear regression (log(agonist) vs response-Variable slope (four parameter)). EC50 values were calculated by the software and reported in pM.

physchem = type: physicochemical; details: pH 7.5
Source text: Assay (III): ThT Fibrillation Assay for the Assessment of Physical Stability of Peptide Compositions The purpose of this assay is to assess the physical stability of the glucagon derivatives of the invention in aqueous solutions. Low physical stability of a peptide may lead to amyloid fibril formation, which is observed as well-ordered, thread-like macromolecular structures in the sample, which eventually may lead to gel formation. This has traditionally been measured by visual inspection of the sample. However, that kind of measurement is very cumbersome and depending on the observer. Therefore, the application of a small molecule indicator probe is much more advantageous. Thioflavin T (ThT) is such a probe and has a distinct fluorescence signature when binding to fibrils [Naiki et al. (1989) Anal. Biochem. 177, 244-249; LeVine (1999) Methods. Enzymol. 309, 274-284]. Here, as depicted in FIG. 1, F is the ThT fluorescence at the time t. The constant t0 is the time needed to reach 50% of maximum fluorescence. The two important parameters describing fibril formation are the lag-time calculated by t0−2τ and the apparent rate constant kapp 1/τ. Samples were prepared freshly before each assay. Each sample composition is described in the legends. The pH of the sample was adjusted to the desired value using appropriate amounts of concentrated NaOH and HCl. Thioflavin T was added to the samples from a stock solution in H2O to a final concentration of 1 μM. Sample aliquots of 200 μl (250 μM of the glucagon derivative/analogue in 10 mM HEPES buffer, pH 7.5) were placed in a 96 well microtiter plate (Packard OptiPlate™-96, white polystyrene). Usually, four or eight replica of each sample (corresponding to one test condition) was placed in one column of wells. The plate was sealed with Scotch Pad (Qiagen). Incubation at given temperature, shaking and measurement of the ThT fluorescence emission were done in a Fluoroskan Ascent FL fluorescence platereader (Thermo Labsystems). The plate was incubated 37° C. with orbital shaking adjusted to 960 rpm with an amplitude of 1 mm. Fluorescence measurement was done using excitation through a 444 nm filter and measurement of emission through a 485 nm filter. Each run was initiated by incubating the plate at the assay temperature for 10 min. The plate was measured every 20 minutes for a desired period of time. Between each measurement, the plate was shaken and heated as described. After completion of the ThT assay the four or eight replica of each sample was pooled and centrifuged at 20000 rpm for 30 minutes at 18° C. The supernatant was filtered through a 0.22 μm filter and an aliquot was transferred to a HPLC vial. The concentration of peptide in the initial sample and in the filtered supernatant was determined by reverse phase HPLC using an appropriate standard as reference. The percentage fraction the concentration of the filtered sample constituted of the initial sample concentration was reported as the recovery. The measurement points were saved in Microsoft Excel format for further processing and curve drawing and fitting was performed using GraphPad Prism. The background emission from ThT in the absence of fibrils was negligible. The data points were typically a mean of four or eight samples and shown with standard deviation error bars. Only data obtained in the same experiment (i.e. samples on the same plate) were presented in the same graph ensuring a relative measure of fibrillation between experiments. The data set may be fitted to Eq. (1).

Structure (SMILES) | EC50 (human glucagon receptor) [pM] | recovery at 250 μM (physchem) [%]
CC(=O)N[C@@H](CCC(=O)N[C@@H](CCC(=O)N[C@@H](CCC(=O)N[C@@H](CCC(=O)NCCCC[C@H](NC(=O)[C@H](CCC(N)=O)NC(=O)[C@H](C)NC(=O)[C@H](CCCNC(=N)N)NC(=O)[C@H](CCCNC(=N)N)NC(=O)[C@H](CO)NC(=O)[C@H](CCC(=O)O)NC(=O)[C@H](CC(C)C)NC(=O)[C@H](Cc1ccc(O)cc1)NC(=O)[C@H](CCCCN)NC(=O)[C@H](CO)NC(=O)[C@H](Cc1ccc(O)cc1)NC(=O)[C@H](CC(=O)O)NC(=O)[C@H](CO)NC(=O)[C@@H](NC(=O)[C@H](Cc1ccccc1)NC(=O)[C@@H](NC(=O)CNC(=O)[C@H](Cc1c[nH]cn1)NC(=O)[C@H](CO)NC(=O)CCc1c[nH]cn1)[C@@H](C)O)[C@@H](C)O)C(=O)N[C@@H](Cc1ccccc1)C(=O)N[C@H](C(=O)N[C@@H](CCC(N)=O)C(=O)N[C@@H](Cc1c[nH]c2ccccc12)C(=O)N[C@@H](CC(C)C)C(=O)N[C@@H](CC(C)C)C(=O)N[C@@H](CO)C(=O)N[C@H](C(=O)O)[C@@H](C)O)C(C)C)C(=O)O)C(=O)O)C(=O)O)C(=O)O [Example 13, Nϵ^21-[(4S)-4-[[(4S)-4-[[(4S)-4-[[(4S)-4-acetamido-4-carboxybutanoyl]amino]-4-carboxybutanoyl]amino]-4-carboxybutanoyl]amino]-4-carboxybutanoyl]-[Imp1, His3, Glu15, Lys21, Leu27, Ser28]-Glucagon] (Desaminohistidyl-SHGTFTSDYSKYLESRRAQK([γGlu-γGlu-γGlu-γGlu-Ac])FVQWLLST-OH) | 17 | 39
CC(=O)N[C@@H](CCC(=O)N[C@@H](CCC(=O)N[C@@H](CCC(=O)N[C@@H](CCC(=O)NCCCC[C@H](NC(=O)[C@H](CC(C)C)NC(=O)[C@H](CC(C)C)NC(=O)[C@H](Cc1c[nH]c2ccccc12)NC(=O)[C@H](CCC(N)=O)NC(=O)[C@@H](NC(=O)[C@H](Cc1ccccc1)NC(=O)[C@H](CCC(=O)O)NC(=O)[C@H](CCC(N)=O)NC(=O)[C@H](C)NC(=O)[C@H](CCCNC(=N)N)NC(=O)[C@H](CCCNC(=N)N)NC(=O)[C@H](CO)NC(=O)[C@H](CCC(=O)O)NC(=O)[C@H](CC(C)C)NC(=O)[C@H](Cc1ccc(O)cc1)NC(=O)[C@H](CCCCN)NC(=O)[C@H](CO)NC(=O)[C@H](Cc1ccc(O)cc1)NC(=O)[C@H](CC(=O)O)NC(=O)[C@H](CO)NC(=O)[C@@H](NC(=O)[C@H](Cc1ccccc1)NC(=O)[C@@H](NC(=O)CNC(=O)[C@H](Cc1c[nH]cn1)NC(=O)[C@H](CO)NC(=O)CCc1c[nH]cn1)[C@@H](C)O)[C@@H](C)O)C(C)C)C(=O)N[C@H](C(=O)O)[C@@H](C)O)C(=O)O)C(=O)O)C(=O)O)C(=O)O [Example 14, N^ϵ28-[(4S)-4-[[(4S)-4-[[(4S)-4-[[(4S)-4-acetamido-4-carboxybutanoyl]amino]-4-carboxybutanoyl]amino]-4-carboxybutanoyl]amino]-4-carboxybutanoyl]-[Imp1, His3, Glu15, Glu21, Leu27, Lys28]-Glucagon] (Desaminohistidyl-SHGTFTSDYSKYLESRRAQEFVQWLLK([γGlu-γGlu-γGlu-γGlu-Ac])T-OH) | 6 | 98
CC(=O)N[C@@H](CCC(=O)N[C@@H](CCC(=O)N[C@@H](CCC(=O)N[C@@H](CCC(=O)NCCCC[C@H](NC(=O)[C@H](CO)NC(=O)[C@H](CC(C)C)NC(=O)[C@H](CC(C)C)NC(=O)[C@H](Cc1c[nH]c2ccccc12)NC(=O)[C@H](CCC(N)=O)NC(=O)[C@@H](NC(=O)[C@H](Cc1ccccc1)NC(=O)[C@H](CCC(=O)O)NC(=O)[C@H](CCC(N)=O)NC(=O)[C@H](C)NC(=O)[C@H](CCCNC(=N)N)NC(=O)[C@H](CCCNC(=N)N)NC(=O)[C@H](CO)NC(=O)[C@H](CCC(=O)O)NC(=O)[C@H](CC(C)C)NC(=O)[C@H](Cc1ccc(O)cc1)NC(=O)[C@H](CCCCN)NC(=O)[C@H](CO)NC(=O)[C@H](Cc1ccc(O)cc1)NC(=O)[C@H](CC(=O)O)NC(=O)[C@H](CO)NC(=O)[C@@H](NC(=O)[C@H](Cc1ccccc1)NC(=O)[C@@H](NC(=O)CNC(=O)[C@H](Cc1c[nH]cn1)NC(=O)[C@H](CO)NC(=O)CCc1c[nH]cn1)[C@@H](C)O)[C@@H](C)O)C(C)C)C(=O)O)C(=O)O)C(=O)O)C(=O)O)C(=O)O [Example 15, N^ϵ29-[(4S)-4-[[(4S)-4-[[(4S)-4-[[(4S)-4-acetamido-4-carboxybutanoyl]amino]-4-carboxybutanoyl]amino]-4-carboxybutanoyl]amino]-4-carboxybutanoyl]-[Imp1, His3, Glu15, Glu21, Leu27, Ser28, Lys29]-Glucagon] (Desaminohistidyl-SHGTFTSDYSKYLESRRAQEFVQWLLSK([γGlu-γGlu-γGlu-γGlu-Ac])-OH) | 4 | 88
